Six molecules from ChEMBL document CHEMBL1250531, “Comparative nuclease and anti-cancer properties of the naturally occurring malabaricones” (Bioorg Med Chem, 2010) can be followed below.

Data set [1] has as its system Nucleic Acid. Description: Induction of Escherichia coli pBR322 DNA cleavage assessed as open circular form of DNA at 25 uM after 45 mins by agarose gel electrophoresis in presence of copper. It is filed as nucleic-acid assay.
Data set [2] has as its system MCF7. The experiment in a line: Cytotoxicity against human MCF7 cells after 72 hrs by MTT assay. It counts as functional, cell-based. To be noted: for IC50: MCF7, 72 h.
In data set [3] the test system is MCF7. Description: Ratio of compound IC50 to curcumin IC50 for human MCF7 cells. It is filed as functional.
Data set [4] relates to Nucleic Acid. Description: Induction of Escherichia coli pBR322 DNA cleavage assessed as linear form of DNA at 25 uM after 45 mins by agarose gel electrophoresis in presence of copper. It counts as nucleic-acid assay.
In data set [5] the test system is Nucleic Acid. Description: Induction of Escherichia coli pBR322 DNA cleavage at 25 uM after 45 mins under anoxic condition by agarose gel electrophoresis in presence of copper. It counts as nucleic-acid assay.
Data set [6] has as its system Nucleic Acid. Description: Induction of Escherichia coli pBR322 DNA cleavage assessed as supercoiled form of DNA at 25 uM after 45 mins by agarose gel electrophoresis in presence of 100 uM of copper. It counts as nucleic-acid assay.
The nature of data set [7]: Induction of copper chelation assessed as compound copper complex formation at 25 uM by absorption spectroscopic analysis. It is filed as physicochemical.
In data set [8] the test system is Nucleic Acid. Description: Induction of Escherichia coli pBR322 DNA cleavage at 25 uM after 45 mins by agarose gel electrophoresis. It is filed as nucleic-acid assay.
Data set [9] deals with Nucleic Acid. The experiment in a line: Induction of Escherichia coli pBR322 DNA cleavage at 25 uM after 45 mins by agarose gel electrophoresis in presence of 100 uM of copper and 250 uM of EDTA. It is filed as nucleic-acid assay.
In data set [10] the test system is Calf thymus DNA. Description: Binding affinity to calf thymus DNA at 50 uM after 5 mins by absorption spectroscopic analysis. To be noted: Bos taurus. It counts as nucleic-acid assay.
Data set [11] has as its system MCF7. The experiment in a line: Induction of ROS production in human MCF7 cells at 15 uM after 3 hrs by DCFDA assay relative to control. It counts as functional.
In data set [12] the test system is Nucleic Acid. Description: Induction of Escherichia coli pBR322 DNA cleavage at 25 uM after 45 mins by agarose gel electrophoresis in presence of 100 uM of copper and 100 mM of mannitol. It counts as nucleic-acid assay.
The subject of data set [13] is MCF7. Description: Induction of morphological changes in human MCF7 cells at 2.5 to 40 uM after 24 hrs by phase contrast microscopic analysis. It is filed as functional, cell-based.
Data set [14] relates to Nucleic Acid. Description: Induction of Escherichia coli pBR322 DNA cleavage at 25 uM after 45 mins by agarose gel electrophoresis in presence of 100 uM of copper and 500 U/ml of catalase. It counts as nucleic-acid assay.
Data set [15] concerns Nucleic Acid. Description: Induction of Escherichia coli pBR322 DNA cleavage at 25 uM after 45 mins by agarose gel electrophoresis in presence of <100 uM of copper. It counts as nucleic-acid assay.
Data set [16] concerns Nucleic Acid. The experiment in a line: Induction of Escherichia coli pBR322 DNA cleavage assessed as supercoiled form of DNA at 25 uM after 45 mins by agarose gel electrophoresis in presence of 100 uM of copper and EDTA. It is filed as nucleic-acid assay.
For data set [17], the system named is MCF7. The experiment in a line: Induction of ROS production in human MCF7 cells at 10 uM after 3 hrs by DCFDA assay relative to control. It is filed as functional.
The subject of data set [18] is Nucleic Acid. Description: Induction of Escherichia coli pBR322 DNA cleavage at 25 uM after 45 mins by agarose gel electrophoresis in presence of 100 uM of copper and 500 mM of mannitol. It counts as nucleic-acid assay.
The test system of data set [19] is MCF7. Description: Induction of apoptosis in human MCF7 cells assessed as DNA ladder formation after 24 hrs using ethidium bromide staining by agarose gel electrophoresis. It counts as functional, cell-based.
The test system of data set [20] is Nucleic Acid. Description: Induction of Escherichia coli pBR322 DNA cleavage at 25 uM after 45 mins by agarose gel electrophoresis in presence of 100 uM of copper and 250 uM of neocuproine. It is filed as nucleic-acid assay.
Data set [21] has as its system Nucleic Acid. The experiment in a line: Induction of Escherichia coli pBR322 DNA cleavage assessed as open circular form of DNA at 25 uM after 30 mins by agarose gel electrophoresis in presence of 100 uM of copper. It counts as nucleic-acid assay.
Data set [22] deals with Nucleic Acid. The experiment in a line: Induction of Escherichia coli pBR322 DNA cleavage at 5 to 10 uM uM after 45 mins by agarose gel electrophoresis in presence of 100 uM of copper. It counts as nucleic-acid assay.
Data set [23] has as its system MCF7. Description: Induction of ROS production in human MCF7 cells after 3 hrs by DCFDA assay. It counts as functional, cell-based.
For data set [24], the system named is MCF7. Description: Cytotoxicity against human MCF7 cells assessed as cell viability at 5 uM after 72 hrs by MTT assay pretreated with 1 mM of NAC relative to control. It counts as functional.
A short description of data set [25]: Induction of hydrogen peroxide production at 100 uM after 20 mins by horse radish peroxidase assay relative to control in presence of 100 uM of copper. It is filed as physicochemical.
The subject of data set [26] is Nucleic Acid. The experiment in a line: Induction of Escherichia coli pBR322 DNA cleavage at 25 uM after 45 mins by agarose gel electrophoresis in presence of 100 uM of copper and 250 U/ml of superoxide dismutase. It is filed as nucleic-acid assay.
Data set [27] has as its system Calf thymus DNA. The experiment in a line: Binding affinity to calf thymus DNA assessed as increase of viscosity of DNA solution at 0.2 mM after 30 mins. It counts as nucleic-acid assay. To be noted: Bos taurus.
A short description of data set [28]: Induction of superoxide radical production at 100 uM after 20 mins by NBT reduction assay relative to control in presence of 100 uM of copper. It is filed as physicochemical.
The subject of data set [29] is Nucleic Acid. The experiment in a line: Induction of Escherichia coli pBR322 DNA cleavage assessed as supercoiled form of DNA at 25 uM after 45 mins by agarose gel electrophoresis in presence of 100 uM of copper and catalase. It is filed as nucleic-acid assay.
Data set [30] deals with Calf thymus DNA. The experiment in a line: Binding affinity to calf thymus DNA assessed as increase of ethidium bromide fluorescence quenching at 0.2 mM after 30 mins. To be noted: Bos taurus. It is filed as nucleic-acid assay.
The subject of data set [31] is Nucleic Acid. Description: Induction of Escherichia coli pBR322 DNA cleavage at 25 uM after 45 mins by agarose gel electrophoresis in presence of 100 uM of copper and 100 mM of DMSO. It is filed as nucleic-acid assay.
For data set [32], the system named is Nucleic Acid. The experiment in a line: Induction of Escherichia coli pBR322 DNA cleavage at 25 uM after 45 mins by agarose gel electrophoresis in presence of 100 uM of copper and 100 mM of sodium azide. It counts as nucleic-acid assay.
Data set [33] has as its system Nucleic Acid. The experiment in a line: Induction of Escherichia coli pBR322 DNA cleavage assessed as supercoiled form of DNA at 25 uM after 45 mins by agarose gel electrophoresis in presence of 100 uM of copper and sodium azide. It counts as nucleic-acid assay.
The test system of data set [34] is Nucleic Acid. Description: Induction of Escherichia coli pBR322 DNA cleavage at 25 uM after 45 mins by agarose gel electrophoresis in presence of 100 uM of copper and 500 U/ml of superoxide dismutase. It counts as nucleic-acid assay.
The test system of data set [35] is Nucleic Acid. The experiment in a line: Induction of Escherichia coli pBR322 DNA cleavage assessed as supercoiled form of DNA at 25 uM after 45 mins by agarose gel electrophoresis in presence of 100 uM of copper and neocuproine. It is filed as nucleic-acid assay.
The test system of data set [36] is MCF7. Description: Cytotoxicity against human MCF7 cells assessed as cell viability at 5 uM after 72 hrs by MTT assay. It is filed as functional. The settings on record: MCF7, 72 h, read-out: Activity.
In data set [37] the test system is MCF7. Description: Induction of ROS production in human MCF7 cells at 1 mM after 3 hrs by DCFDA assay relative to control. It counts as functional.
Data set [38] deals with MCF7. Description: Cytotoxicity against human MCF7 cells at 50 uM after 72 hrs by MTT assay relative to control. It counts as functional.
Data set [39] has as its system MCF7. The experiment in a line: Cytotoxicity against human MCF7 cells at 100 uM after 72 hrs by MTT assay. It is filed as functional, cell-based.

Each structure is given as a SMILES string. Active and inactive are the calls of the source. The calls are words filed in the database; no cut-off is given here.

For `O=C(CCCCCCCCc1ccc(O)cc1)c1c(O)cccc1O`, the outcome in data set [1] was Active.

Regarding `COc1cc(/C=C/C(=O)CC(=O)/C=C/c2ccc(O)c(OC)c2)ccc1O` [CURCUMIN], the IC50 in data set [2] was 24.5 µM. In addition, the “fold change (FC)” value in data set [3] was 4.

For the molecule `O=C(CCCCCCCCc1ccc2c(c1)OCO2)c1c(O)cccc1O`, the outcome in [1] was Active. The IC50 in data set [2] came to 15.7 µM. Besides, the result in data set [4] and in data set [5] was inactive.

On to `O=C(CCCCCCCCc1ccc(O)c(O)c1)c1c(O)cccc1O` [MALABARICONE C], for which the outcome in [6], in [8], in data set [9], in [14], in data set [15] and in [20] was inactive. Also, the result in data set [32] was inactive. In addition, the Activity result is “Active” in data set [7]; 50% in data set [11]; 76.2% in data set [16]; 26% in data set [17]; “Dose-dependent effect” in data set [19]; “Dose-dependent effect” in [23]. The Activity in data set [24] was 75.32%; in data set [25], 85%; in data set [28], 42%; in data set [29], 82%; in data set [30], 24.4%; in data set [33], 93.1%. Further, the Activity came to 98.5% in data set [35] and 71% in data set [37]. Besides, the outcome in data set [10], in data set [12], in data set [13], in data set [1], in data set [18] and in [21] was Active. In addition, the outcome in data set [22], in [4], in data set [26], in data set [27], in [31] and in data set [34] was Active. This molecule displayed an IC50 in data set [2] of 5.26 µM. Further, the viability at 5 µM in data set [36] stood at 45.3%.

On to `O=C(CCCCCCCCc1ccccc1)c1c(O)cccc1O` [MALABARICONE A], for which the Activity in data set [38] is 12%; in data set [2], “Dose-dependent effect”. Further, the outcome in [1] and in data set [5] was inactive. Further, the result in data set [4] was Active.

In the case of `C=CCc1ccc(O)c(O)c1`, the result in data set [39] was inactive.
